Changes are numbered by the printed parent chain.

Assay [1] addresses T1, 15N-labelled DENR26–98–MCTS1 complex (Homo sapiens, UniProt O43583).
T1 construct: gene DENR; DENR residues 26-98, 15N-labelled, in complex with MCTS1
T1 sequence (O43583 26-98): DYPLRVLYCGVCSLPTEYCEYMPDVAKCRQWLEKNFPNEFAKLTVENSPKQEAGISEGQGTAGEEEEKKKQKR
T1 sequence (Q9ULC4 1-181 partner): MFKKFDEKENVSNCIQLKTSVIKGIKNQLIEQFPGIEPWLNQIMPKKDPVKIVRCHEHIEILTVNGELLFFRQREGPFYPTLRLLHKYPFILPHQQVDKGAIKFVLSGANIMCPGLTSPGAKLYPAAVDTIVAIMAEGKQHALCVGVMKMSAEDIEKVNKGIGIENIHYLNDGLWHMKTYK
Kind of assay: 1H NMR and 1H-15N HSQC. The conditions noted are these: covalent; fivefold excess, pH 7.5, 298 K. The format is binding.

Assay [2] concerns the target T2, His-DENR–MCTS1 complex (recombinant WT DENR; DENR* = C13A/C132A/C154A) (Homo sapiens, UniProt O43583, C13A/C132A/C154A).
T2 construct: His-tagged DENR co-expressed with MCTS1 in Escherichia coli; heterodimeric complex; C4 zinc site C34/C37/C44/C53
T2 sequence (O43583 2-198 C13A/C132A/C154A): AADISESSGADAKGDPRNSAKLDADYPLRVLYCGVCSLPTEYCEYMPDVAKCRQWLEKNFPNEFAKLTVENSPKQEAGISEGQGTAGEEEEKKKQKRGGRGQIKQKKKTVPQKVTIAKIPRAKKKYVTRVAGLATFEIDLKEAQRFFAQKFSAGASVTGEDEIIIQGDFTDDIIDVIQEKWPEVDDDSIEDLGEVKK
T2 sequence (Q9ULC4 1-181 partner): T1 sequence (Q9ULC4 1-181 partner)
Kind of assay: differential alkylation LC-MS; intact protein MS; Zn release (PAR). It is filed as binding. The settings on record: covalent; 25 µM rabeprazole, fivefold excess, 15 min, r.t., pH 7.5; site C44.

Assay [3] addresses T3, His-DENR–MCTS1 complex (recombinant WT DENR; DENR* = C13A/C132A/C154A) (Homo sapiens, UniProt O43583).
T3 construct: His-tagged DENR co-expressed with MCTS1 in Escherichia coli; heterodimeric complex; C4 zinc site C34/C37/C44/C53
T3 sequence (O43583 2-198): T2 sequence (O43583 2-198 C13A/C132A/C154A) with A12C, A131C, A153C
T3 sequence (Q9ULC4 1-181 partner): T1 sequence (Q9ULC4 1-181 partner)
Briefly: LC-MS/MS adduct mapping. It is filed as binding. The conditions noted are these: covalent; fivefold excess, iodoacetamide, 15 min, r.t., pH 7.5; sites C44 and C34.

Assay [4] has as its target T3, His-DENR–MCTS1 complex (recombinant WT DENR; DENR* = C13A/C132A/C154A). Kind of assay: in-gel Cy5 labelling after click chemistry. It is filed as binding. The conditions noted are these: covalent; with NEM; zinc-dependent.
Assay [5] concerns the target T4, SBP-DENR (SBP-DENR* = C13A/C132A/C154A) (Homo sapiens, UniProt O43583).
T4 sequence (O43583 1-198): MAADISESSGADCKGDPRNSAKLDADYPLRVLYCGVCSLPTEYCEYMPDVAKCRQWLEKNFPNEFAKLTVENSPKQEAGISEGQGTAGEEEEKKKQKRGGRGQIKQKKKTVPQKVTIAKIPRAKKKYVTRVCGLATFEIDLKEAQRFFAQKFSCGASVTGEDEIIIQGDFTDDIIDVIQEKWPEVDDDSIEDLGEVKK
Briefly: affinity purification and click Cy5 in-gel labelling. The format is cell-based. The conditions noted are these: covalent; intact HEK293 MSR cells, 10 µM, 15 min, 37 °C.

For the compound `COCCCOc1ccnc(C[S+]([O-])c2nc3ccccc3[nH]2)c1C` (centres unmarked) [rabeprazole], in assay [1], the “1H NMR and 1H-15N HSQC” value is on record as “DENR exhibited time-dependent chemical shift perturbations of the amide peaks during incubation with rabeprazole”. In addition, the occupancy in assay [2] is listed as ~ 80%. Also, the LC-MS/MS adduct mapping result in assay [3] is “we identified the hydrolysed form of rabeprazole on cysteines C44”.

In the case of `Cc1c(OCCCN=[N+]=[N-])ccnc1C[S+]([O-])c1nc2ccccc2[nH]1` (centres unmarked) [Rabazi], in assay [4], the “in-gel Cy5 labelling after click chemistry” value is “Rabazi conjugation to recombinant DENR leads to a rather weak and diffuse band”. Moreover, the “affinity purification and click Cy5 in-gel labelling” value in assay [5] is “led to the formation of an SBP-DENR–Rabazi disulfide conjugate”.
